Among the test systems are DU-145 prostate; OVCAR-4 ovarian; BT-549 breast; M14 melanoma; HOP-92 NSCLC; IGROV1 ovarian; UO-31 renal; MDA-MB-435; HT29 colon; RXF 393 renal.
What all share (test): NCI anticancer screen, dose series, 48 h

Structures are written as SMILES. Values joined by “and” are separate entries in the source; they are usually repeats but may differ in a detail not shown here. Identical values can stand only once.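 Test compounds were applied to cells in 96-well plates for 48 hours at 5 doses. GI50: concentration for 50% inhibition of growth. TGI marks complete inhibition of growth.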

Consider `CCN(Cc1cccc(F)c1)c1ccc(CO)c(Cl)c1`, for which the GI50 was 26900 nM in the test on DU-145 prostate; 318 nM in the test with OVCAR-4 ovarian; 11000 nM with BT-549 breast; 19200 nM with M14 melanoma; 1860 nM in the test with HOP-92 NSCLC; 77.9 nM with IGROV1 ovarian. The GI50 in the test with UO-31 renal is 5090 nM; with MDA-MB-435, 18200 nM; with HT29 colon, 3420 nM; in the test with RXF 393 renal, 5280 nM. The TGI is above 100000 nM in the test with DU-145 prostate; 15100 nM in the test on OVCAR-4 ovarian; 28300 nM in the test on BT-549 breast; 66800 nM with M14 melanoma; 20800 nM in the test with HOP-92 NSCLC; 1150 nM with IGROV1 ovarian. Further, the TGI with UO-31 renal was 58700 nM; in the test with MDA-MB-435, 55100 nM; with HT29 colon it was above 51400 nM; in the test on RXF 393 renal, 27800 nM.

Take `CN(C)CCCOc1ccc(-c2ccc3ncc4c(c3c2)n(C2CCOCC2)c(=O)n4C)cn1`: the GI50 with DU-145 prostate is 2370 nM; in the test on OVCAR-4 ovarian, 1340 nM; in the test on BT-549 breast it was 1320 nM; in the test with M14 melanoma, 1780 nM; in the test with HOP-92 NSCLC, 218 nM; in the test with IGROV1 ovarian, 454 nM. The GI50 in the test with UO-31 renal was 494 nM; with MDA-MB-435, 1650 nM; in the test with HT29 colon, 1950 nM; with RXF 393 renal, 838 nM. Besides, the TGI in the test on DU-145 prostate was 17200 nM; with OVCAR-4 ovarian, 11300 nM; in the test on BT-549 breast it was 8990 nM; in the test with M14 melanoma, 13800 nM; in the test on HOP-92 NSCLC, 1610 nM; with IGROV1 ovarian, 5600 nM. The TGI in the test on UO-31 renal was 5890 nM; in the test on MDA-MB-435, 11300 nM; with HT29 colon, 13500 nM; with RXF 393 renal it was 4850 nM.

For the compound `COc1cc(OC)cc(N(CCNC(C)C)c2ccc3ncc(-c4cnn(C)c4)nc3c2)c1`, the GI50 in the test with DU-145 prostate was 5290 nM; with OVCAR-4 ovarian, 2250 nM; in the test on BT-549 breast, 2780 nM; in the test on M14 melanoma, 4450 nM; with HOP-92 NSCLC, 3320 nM; in the test with IGROV1 ovarian, 3020 nM. For the same compound, the GI50 in the test with UO-31 renal was 2230 nM; in the test with MDA-MB-435, 5730 nM; with HT29 colon, 3720 nM; in the test on RXF 393 renal, 1200 nM. In addition, the TGI in the test on DU-145 prostate came to 17900 nM; in the test with OVCAR-4 ovarian, 14800 nM; in the test with BT-549 breast, 17900 nM; in the test with M14 melanoma, 18600 nM; in the test on HOP-92 NSCLC, 15500 nM; in the test with IGROV1 ovarian, 11100 nM. Moreover, the TGI came out at 12300 nM in the test with UO-31 renal, 19000 nM in the test on MDA-MB-435, 15700 nM with HT29 colon and 5160 nM with RXF 393 renal.

As to `Cc1cc(=O)oc2cc(OC(=O)N(C)C)c(Cl)cc12`, the TGI in the test with DU-145 prostate, in the test on OVCAR-4 ovarian, in the test on BT-549 breast, with M14 melanoma, in the test on HOP-92 NSCLC and in the test on IGROV1 ovarian was above 100000 nM each time. Also, the TGI in the test with UO-31 renal was above 100000 nM; in the test with MDA-MB-435 it was above 100000 nM; in the test with HT29 colon it was above 100000 nM; in the test on RXF 393 renal it was 41500 nM.

On to `O=S(=O)(Nc1ccccc1Cl)c1ccc(-c2cnc(C3CC3)o2)cc1`, for which the GI50 in the test with DU-145 prostate is 940 nM; in the test on OVCAR-4 ovarian, 4210 nM; with BT-549 breast, 2120 nM; in the test with M14 melanoma, 279 nM; in the test with HOP-92 NSCLC, 324 nM; in the test with IGROV1 ovarian, 680 nM. The GI50 was 832 nM with UO-31 renal, 55.2 nM with MDA-MB-435, 331 nM in the test with HT29 colon and 266 nM in the test with RXF 393 renal. The TGI in the test on DU-145 prostate was above 100000 nM; in the test on OVCAR-4 ovarian it was above 100000 nM; in the test with BT-549 breast it was 69300 nM; with M14 melanoma it was above 100000 nM; in the test on HOP-92 NSCLC, 7280 nM; in the test with IGROV1 ovarian it was above 100000 nM. Further, the TGI in the test with UO-31 renal is above 77100 nM; in the test on MDA-MB-435, 388 nM; in the test on HT29 colon, above 41200 nM; with RXF 393 renal, 1180 nM.

As to `CCC[CH2][Sn]([CH2]CCC)([CH2]CCC)[O]c1ccc(Cl)cc1Cl`, the GI50 in the test on DU-145 prostate was 130 nM; in the test on OVCAR-4 ovarian, 114 nM; in the test on BT-549 breast, 154 nM; in the test with M14 melanoma it was 143 nM; in the test with HOP-92 NSCLC it was 73.3 nM; in the test on IGROV1 ovarian, 83 nM. The GI50 in the test on UO-31 renal was 57.2 nM; in the test on MDA-MB-435, 139 nM; in the test on HT29 colon, 118 nM; in the test on RXF 393 renal, 142 nM. Also, the TGI in the test with DU-145 prostate is 271 nM; in the test with OVCAR-4 ovarian, 236 nM; in the test with BT-549 breast it was 315 nM; in the test on M14 melanoma, 284 nM; in the test with HOP-92 NSCLC, 384 nM; in the test on IGROV1 ovarian, 223 nM. Besides, the TGI is 203 nM with UO-31 renal, 290 nM with MDA-MB-435, 293 nM in the test on HT29 colon and 296 nM with RXF 393 renal.

Consider `CN[C@H]1C=C[C@@H]2/C=C(C)/C=C/[C@@H](C)[C@H]([C@H](C)[C@H](O)[C@@H](C)NC(C)=O)OC(=O)/C=C/C=C(C)\C=C\[C@]2(C)C1`, for which the TGI is above 49000 nM in the test on DU-145 prostate; above 49000 nM in the test on OVCAR-4 ovarian; above 49000 nM in the test on BT-549 breast; 7240 nM in the test on M14 melanoma; 66.1 nM and 22.2 nM in the test with HOP-92 NSCLC; above 49000 nM in the test with IGROV1 ovarian. Also, the TGI with UO-31 renal is above 49000 nM; with MDA-MB-435, 9140 nM; in the test on HT29 colon, above 49000 nM; in the test with RXF 393 renal, 28700 nM. For the same compound, the GI50 with OVCAR-4 ovarian was 7120 nM; in the test with BT-549 breast, 4.9 nM; with M14 melanoma, < 1 nM and 4.9 nM; in the test with HOP-92 NSCLC, < 1 nM and 4.9 nM; with IGROV1 ovarian it was 4.9 nM; with UO-31 renal, 9.94 nM. Moreover, the GI50 with MDA-MB-435 is < 1 nM and 4.9 nM; in the test on HT29 colon, < 1 nM and 4.9 nM; in the test on RXF 393 renal, < 1 nM and 6.74 nM.

`CCCNNC(=O)/C=C/c1ccc(CNCCc2c(C)[nH]c3ccccc23)cc1`: the GI50 in the test on DU-145 prostate was 32.2 nM; in the test with OVCAR-4 ovarian it was 52.5 nM; in the test on BT-549 breast it was 280 nM; with M14 melanoma, 23 nM; in the test on HOP-92 NSCLC, 6.93 nM; in the test on IGROV1 ovarian it was below 33.9 nM. Moreover, the GI50 is 59.3 nM in the test with UO-31 renal, 49.4 nM in the test on MDA-MB-435, 12.3 nM in the test on HT29 colon and 11 nM in the test on RXF 393 renal. Moreover, the TGI in the test on DU-145 prostate is 3350 nM; in the test with OVCAR-4 ovarian it was 6450 nM; in the test with BT-549 breast it was 4710 nM; in the test with M14 melanoma, 1940 nM; in the test with HOP-92 NSCLC, 74.4 nM; with IGROV1 ovarian it was 216 nM. Besides, the TGI in the test on UO-31 renal came out at 601 nM; in the test with MDA-MB-435, 464 nM; in the test with HT29 colon, 1530 nM; in the test with RXF 393 renal, 47.9 nM.

The record behind these values is PubChem BioAssay (NCI).
